Laboratory results from patent US4416884A, “Piperazinylbenzoheterocyclic compounds” (Otsuka Pharmaceutical Co., Ltd., priority 1978, dated 1983).
Like-named read-outs stand apart in the source and are kept apart here.

What was measured:
Format in all cases: cell-based
[1] = test system: Bacillus subtilis PCI 219; experiment: antimicrobial activity, serial dilution method on agar plate
Summary of the method: (§1)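 Agar-plate serial dilution in Heart Infusion agar; inocula prepared at 1×10^8 cells/ml (O.D. 660 mμ=0.07 to 0.16) and at 1×10^6 cells/ml by dilution. Values are minimum inhibitory concentrations in mcg/ml.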

[2] = test system: Escherichia Coli NIHJ JC-2 (IFO 12734); experiment: as above; settings: Escherichia coli, read-out: Minimum Inhibitory Concentration
Summary of the method: as §1

[3] = test system: Klebsiella pneumoniae ST-101; experiment: as above
Summary of the method: as §1

[4] = test system: Proteus morganii IID Kono; experiment: as above; settings: Morganella morganii
Summary of the method: as §1

[5] = test system: Pseudomonas aeruginosa ATCC 10145; experiment: as above
Summary of the method: as §1

[6] = test system: Streptococcus pneumoniae Type III; experiment: as above
Summary of the method: as §1

[7] = test system: Streptococcus pneumoniae Type II; experiment: as above
Summary of the method: as §1

[8] = test system: Streptococcus pyogenes IID Cook; experiment: as above
Summary of the method: as §1

[9] = test system: Yersinia enterocolitica 0-5; experiment: as above
[10] = test system: Aeromonas hydrophila IFO 12658; experiment: antimicrobial activity on bacteria which cause infectious diseases in fish
Protocol: (§2) The antimicrobial activity of the following test compounds on various test organisms listed below was determined by the serial dilution method on agar plate (Heart Infusion agar produced by Difco Co.) (see CHEMOTHERAPY 22, pp. 1126-1128 (1974)), and the minimum inhibitory concentrations (mcg/ml) obtained are shown in Table 1 below.
(§3) A sample of each test organism was prepared so that the population of the organism was 1×10^8 cells/ml (O.D. 660 mμ=0.07 to 0.16) and 1×10^6 cells/ml (which was obtained by diluting the above 1×10^8 cells/ml preparation).
(§4) In the same manner as above, the antimicrobial activity of the following compounds on various test organisms which cause infectious diseases in fish was determined.

[11] = test system: Aeromonas hydrophila IFO 12981; experiment: as above
Protocol: as §2, §3, §4

[12] = test system: Aeromonas salmonicida IFO 12659; experiment: as above
Protocol: as §2, §3, §4

[13] = test system: Aeromonas salmonicida IFO 12718; experiment: as above
Protocol: as §2, §3, §4

[14] = test system: Pseudomonas fluorescens IFO 12180; experiment: as above; settings: IFO12180, read-out: Minimum Inhibitory Concentration
Protocol: as §2, §3, §4

[15] = test system: Pseudomonas fluorescens IFO 12568; experiment: as above
Protocol: as §2, §3, §4

[16] = test system: Vibrio anguillarum IFO 12710; experiment: as above
Protocol: as §2, §3, §4

[17] = test system: Vibrio anguillarum IFO 13266; experiment: as above
Protocol: as §2, §3, §4

[18] = test system: Test Organism 1 (Escherichia Coli NIHJ); experiment: influence of the addition of horse serum on the MIC
[19] = test system: Test Organism 17 (Pseudomonas putida IFO 13696); experiment: as above
[20] = test system: Test Organism 16 (Pseudomonas maltophilia IFO 12692); experiment: as above; settings: Stenotrophomonas maltophilia
[21] = test system: Test Organism 21 (Bacillus subtilis PCI 219); experiment: as above
[22] = test system: Test Organism 27 (Streptococcus pneumoniae Type III); experiment: as above
[23] = read-out: Minimum Inhibitory Concentration, inoculum 1 × 10^6 cells/ml
[24] = read-out: Minimum Inhibitory Concentration, inoculum 1 × 10^8 cells/ml
[25] = read-out: Minimum Inhibitory Concentration, horse serum 0%, inoculum 10^6
[26] = read-out: Minimum Inhibitory Concentration, horse serum 0%, inoculum 10^8
[27] = read-out: Minimum Inhibitory Concentration, horse serum 10%, inoculum 10^6
[28] = read-out: Minimum Inhibitory Concentration, horse serum 10%, inoculum 10^8
[29] = read-out: Minimum Inhibitory Concentration, horse serum 20%, inoculum 10^6
[30] = read-out: Minimum Inhibitory Concentration, horse serum 20%, inoculum 10^8
[31] = read-out: Minimum Inhibitory Concentration, horse serum 40%, inoculum 10^6
[32] = read-out: Minimum Inhibitory Concentration, horse serum 40%, inoculum 10^8

Measured: MIC

CC1CCc2c(N3CCNCC3)ccc3c(=O)c(C(=O)O)cn1c23 (stereo not drawn) [A]
3.1 µg/mL: [4]; [23] | [14] | [16]; IFO12710, read-out: Minimum Inhibitory Concentration, inoculum 10^6 | [16]; IFO12710, read-out: Minimum Inhibitory Concentration, inoculum 10^8 | [18]; [27] | [18]; [29] | [18]; [30] | [18]; [31] | [18]; [32] | [20]; IFO12692, read-out: Minimum Inhibitory Concentration, horse serum 0%, inoculum 10^8 | [21]; [25] | [21]; [27] | [21]; [28] | [22]; [31]
0.2 µg/mL: [3]; ST101, read-out: Minimum Inhibitory Concentration, inoculum 1 × 10^6 cells/ml | [10]; IFO12658, inoculum 10^8, read-out: Minimum Inhibitory Concentration | [11]; IFO12981, inoculum 10^6, read-out: Minimum Inhibitory Concentration | [11]; IFO12981, inoculum 10^8, read-out: Minimum Inhibitory Concentration | [12]; IFO12659, inoculum 10^6, read-out: Minimum Inhibitory Concentration | [13]; IFO12718, inoculum 10^6, read-out: Minimum Inhibitory Concentration | [17]; IFO13266, read-out: Minimum Inhibitory Concentration, inoculum 10^8 | [19]; IFO13696, read-out: Minimum Inhibitory Concentration, horse serum 0%, inoculum 10^6 | [19]; IFO13696, read-out: Minimum Inhibitory Concentration, horse serum 10%, inoculum 10^6 | [19]; IFO13696, read-out: Minimum Inhibitory Concentration, horse serum 10%, inoculum 10^8 | [19]; IFO13696, read-out: Minimum Inhibitory Concentration, horse serum 20%, inoculum 10^6 | [19]; IFO13696, read-out: Minimum Inhibitory Concentration, horse serum 20%, inoculum 10^8 | [19]; IFO13696, read-out: Minimum Inhibitory Concentration, horse serum 40%, inoculum 10^6 | [19]; IFO13696, read-out: Minimum Inhibitory Concentration, horse serum 40%, inoculum 10^8
0.4 µg/mL: [3]; ST101, read-out: Minimum Inhibitory Concentration, inoculum 1 × 10^8 cells/ml | [12]; IFO12659, inoculum 10^8, read-out: Minimum Inhibitory Concentration | [13]; IFO12718, inoculum 10^8, read-out: Minimum Inhibitory Concentration | [19]; IFO13696, read-out: Minimum Inhibitory Concentration, horse serum 0%, inoculum 10^8 | [20]; IFO12692, read-out: Minimum Inhibitory Concentration, horse serum 40%, inoculum 10^6
0.1 µg/mL: [10]; IFO12658, inoculum 10^6, read-out: Minimum Inhibitory Concentration | [17]; IFO13266, read-out: Minimum Inhibitory Concentration, inoculum 10^6
6.3 µg/mL: [4]; [24] | [5]; ATCC10145, read-out: Minimum Inhibitory Concentration, inoculum 1 × 10^6 cells/ml | [5]; ATCC10145, read-out: Minimum Inhibitory Concentration, inoculum 1 × 10^8 cells/ml | [7]; [23] | [18]; [25] | [18]; [26] | [18]; [28] | [21]; [26] | [22]; [25] | [22]; [27] | [22]; [28] | [22]; [29] | [22]; [30] | [22]; [32]
0.8 µg/mL: [1]; PCI219, read-out: Minimum Inhibitory Concentration, inoculum 1 × 10^6 cells/ml | [1]; PCI219, read-out: Minimum Inhibitory Concentration, inoculum 1 × 10^8 cells/ml | [9]; Yersinia enterocolitica, 05, read-out: Minimum Inhibitory Concentration, inoculum 1 × 10^6 cells/ml | [9]; Yersinia enterocolitica, 05, read-out: Minimum Inhibitory Concentration, inoculum 1 × 10^8 cells/ml | [20]; IFO12692, read-out: Minimum Inhibitory Concentration, horse serum 20%, inoculum 10^6 | [20]; IFO12692, read-out: Minimum Inhibitory Concentration, horse serum 20%, inoculum 10^8 | [20]; IFO12692, read-out: Minimum Inhibitory Concentration, horse serum 40%, inoculum 10^8 | [21]; [29] | [21]; [31] | [21]; [32]
25 µg/mL: [6]; [24] | [7]; [24] | [8]; [24] | [15]; IFO12568, read-out: Minimum Inhibitory Concentration, inoculum 10^8
1.6 µg/mL: [2] | [20]; IFO12692, read-out: Minimum Inhibitory Concentration, horse serum 0%, inoculum 10^6 | [20]; IFO12692, read-out: Minimum Inhibitory Concentration, horse serum 10%, inoculum 10^6 | [20]; IFO12692, read-out: Minimum Inhibitory Concentration, horse serum 10%, inoculum 10^8 | [21]; [30]
12.5 µg/mL: [6]; [23] | [8]; [23] | [15]; IFO12568, read-out: Minimum Inhibitory Concentration, inoculum 10^6 | [22]; [26]
